Data on two compounds can be found in patent US12247022B2, “Combinations for treatment of NASH/NAFLD and related diseases” (Pfizer Inc., priority 2018, dated 2025).

Format in all cases: in vivo, rat
The subject of test [1] is Western diet fed Sprague Dawley rats. Description: Fasted plasma triglyceride (TG), Western diet fed rats, oral dosing. The following applies: oral monotherapy, 4 hour fast, 2 hours post-dose. The method, then: (§1) A randomized, vehicle-controlled, 8-parallel arm study was conducted in male Sprague-Dawley rats (Charles River (Boston, MA)) to obtain circulating and hepatic TG levels. Standard laboratory conditions were used to house 96 rats (˜200 g); they were double housed and kept under 12:12-hour reverse light-dark schedule (lights off at 8:00 AM). Rats were randomized into chow or Western diet groups and dose groups upon arrival and were given a 14-day lead-in period on either standard rat chow or Western diet prior to the start of the study. Standard Laboratory Rodent chow diet, 5053, was from LabDiet (PMI, St Louis, Missouri). Western Diet, D12079Bi, was from Research Diets (New Brunswick, New Jersey).
For these studies, vehicle was prepared to make a 0.5% (wt/volume) of methyl cellulose (MC, Sigma Aldrich; 274429) in deionized water. The stock solutions with either Compound A (prepared from the tris salt) or Compound D were prepared with the respective compound to provide a concentration such that 10 ml of the solution would deliver the desired mg/kg dosage amount, where the average weight of the rats used was about 200 g.
(§2) Starting on Day 1 of the study, rats were dosed orally (10 mL/kg) with either vehicle control (0.5% MC (wt/volume %) in dionized water), low or high doses of Compound A (1 mg/kg or 10 mg/kg QD, respectively), low or high doses of Compound D (5 mg/kg or 30 mg/kg BID respectively), or co-administration of low doses (Compound A at 1 mg/kg QD and Compound D at 5 mg/kg BID), or co-administration of high doses (Compound A at 10 mg/kg QD and Compound D at 30 mg/kg BID)
Fasted plasma analytes: Blood for determining fasted plasma TG was collected after a 4 hour fast, 2 hours post-dose (2 hours into the dark cycle) via lateral tail vein, transferred to BD Microtainer tubes coated with K2EDTA (PN365974), and centrifuged at 4° C. The resulting plasma samples were then analyzed on a Siemens Chemistry XPT clinical analyzer (Malven, PA) using Siemens triglycerides 2 assay reagents (ref 10335892).

Another test concerns SCD1. Description: Hepatic lipogenic gene expression (qPCR), Western diet fed rats: SCD1. The following applies: Actb housekeeping gene, Day 28 liver. Here is the method:
as §1
Starting on Day 1 of the study, rats were dosed orally (10 mL/kg) with either vehicle control (0.5% MC (wt/volume %) in dionized water), low or high doses of Compound A (1 mg/kg or 10 mg/kg QD, respectively), low or high doses of Compound D (5 mg/kg or 30 mg/kg BID respectively), or co-administration of low doses (Compound A at 1 mg/kg QD and Compound D at 5 mg/kg BID), or co-administration of high doses (Compound A at 10 mg/kg QD and Compound D at 30 mg/kg BID) […]
Another portion of the pulverized liver was processed and analyzed for lipogenic gene expression. Rat taqman probes against ACC1, FASN, SCD1, PCSK9 and SREBP-1c were all assessed using Actb as housekeeping gene on qPCR.
(In general: Real-time PCR tracks product formation cycle by cycle.)

Test [2] concerns Western diet fed Sprague Dawley rats. Kind of test: Hepatic triglyceride (steatosis), Western diet fed rats. The note with it: oral, Day 28. The method, then: as §1, §2
On the last day of the study (Day 28), rats were sacrificed for tissue collection after a 4 hour fast, 2 hours post-dose: two hours post-dose, blood for determining plasma analytes was collected via lateral tail vein and then the animals were sacrificed by CO2 asphyxiation. Blood was transferred to BD Microtainer tubes coated with K2EDTA (PN365974), centrifuged at 4° C. and the plasma transferred to a 96-well microtitre plate and stored at −20° C. Livers were rapidly removed, freeze-clamped in a Wollenberg clamp pre-cooled in liquid N2 individually wrapped in aluminum foil and subsequently stored at −80° C.
Tissue pulverization: Frozen livers were rapidly pulverized on an aluminum block cooled in liquid N2, ensuring the tissue remained frozen throughout the pulverization. The pulverized tissues were transferred and stored in 7 mL polypropylene conical tubes at −80° C. until analysis.
Extraction for hepatic triglyceride: Approximately 50 to 100 mg of pulverized tissue was added to a 2 mL lysing matrix D tube (MP Bio) containing 800 μL ice cold 1:1 CHCl3:MEOH. Samples were immediately extracted at 4° C. using Qiagen Tissue Lyser II (Qiagen Cat No. 85300) for 4 minutes at 30 Hz. The homogenate was then transferred to 13×100 mm glass tubes and placed on ice. The lysis tubes were then rinsed with 800 μL of 1:1 CHCl3:MeOH, vortexed for 30 seconds and added to the 13×100 mm glass tubes. While on ice, 2.4 ml of 100% CHCl3 was added to all glass vials to bring the ratio of CHCl3:MeOH to 4:2. Samples were then placed in the −20° C. freezer overnight. […]

Where [3] appears, read: high dose (Compound A 10 mg/kg QD; Compound D 30 mg/kg BID; or both co-administered).
Setting [4] is: low dose (Compound A 1 mg/kg QD; Compound D 5 mg/kg BID; or both co-administered).

As for `CCOc1cccnc1Oc1cncc(-c2ncc(C(=O)N[C@H]3CCOC3)cn2)c1` [Compound D, (S)-2-(5-((3-ethoxypyridin-2-yl)oxy)pyridin-3-yl)-N-(tetrahydrofuran-3-yl)pyrimidine-5-carboxamide], the “reduction of fasted plasma TG, relative to vehicle administered Western diet fed rats” value in test [1] (high dose (Compound D 30 mg/kg BID)) came to 35%; in test [1] (low dose (Compound D 5 mg/kg BID)) it was 20%. The “hepatic SCD1 gene expression relative to Western Diet fed and vehicle treated animals” value in the test on SCD1 is listed as “decreased expression”. For the same compound, the “reduction in steatosis (hepatic triglyceride), relative to vehicle administered Western diet fed rats” value came to 30% in test [2] (setting [3]) and 25% in test [2] (setting [4]).

On to `COc1cc(C(=O)N2CCC3(CC2)CC(=O)c2c(cnn2C(C)C)C3)cc(-c2ccc(C(=O)O)cc2)n1` [Compound A, 4-(4-(1-isopropyl-7-oxo-1,4,6,7-tetrahydrospiro[indazole-5,4′-piperidine]-1′-carbonyl)-6-methoxypyridin-2-yl)benzoic acid], for which the “increase in fasted plasma TG, relative to vehicle administered Western diet fed rats” value came to 1.7 fold in test [1] (high dose (Compound A 10 mg/kg QD)) and 2.4 fold in test [1] (low dose (Compound A 1 mg/kg QD)). In the test with SCD1, the “hepatic SCD1 gene expression relative to Western Diet fed and vehicle treated animals” value is recorded as “trended to further increase”. Further, the “reduction in steatosis (hepatic triglyceride), relative to vehicle administered Western diet fed rats” value stood at 53% in test [2] (setting [3]) and 36% in test [2] (setting [4]).
